Data set [1] in a line: Iron binding constant, calcein displacement assay. The conditions noted are these: calcein displacement. The data set is classed as physicochemical. The source says:
Calcein displacement assay in the presence of varied concentrations of flavonoids and catechols has been used. Calcein release from its complex with iron was monitored by fluorescence as described in [26].

Data set [2] deals with HRE-luciferase reporter (HT22 hippocampal cell line). As to the kind of experiment: HRE-luc reporter assay. The data set is classed as cell-based. The conditions noted are these: Mus musculus, HT-22, 3 h; at 10 µM; read-out: HRE-luc fold activation. From the text:
A promoter-reporter construct that contained 68 bp of a known hypoxia and HIF-1 regulated gene, enolase, containing a wild type hypoxia response element (HRE, 5’-RCTGT-3’), is a widely used approach for screening for HIF activators of different mechanism of action. A cell-based assay with HRE-luciferase reporter system is based on transfected immortalized hippocampal cell line (HT22) and allows screening for a broad spectrum of compounds that include: activators of HIF transcription; activators of HIF binding to HRE; and effectors of HIF protein stability (PHD inhibitors, pVHL & proteasome inhibitors). The assay was performed the same way as for HIF ODD-luc reporter except the cells were plated at the density of 10,000 cell per well and incubated overnight.
For orientation: Reporter assays use an easily measured gene product as a stand-in for the process of interest.

For data set [3], the system named is Neh2-luc reporter (SH-SY5Y cell line). The data set is described as follows: Neh2-luc reporter assay. The data set is classed as cell-based. On the procedure:
(§1) SH-SY5Y cell lines stably expressing HIF1 ODD-luc or Neh2-luc reporters were grown in the DMEM/F12 supplemented with GlutaMAX (Thermo Fisher Scientific) containing 10% FBS, 100 U/ml penicillin, and 100 μg/ml streptomycin and plated into 384-well white flat-bottom plates at 7,000 cell/well in 30 µl serum and incubated overnight at 37°C, 5% CO2. The next day compounds were added to a final concentration of 10 µM and the plates were incubated for 3 hours at 37°C. Reporter activation after 3 h incubation with the studied compound was compared to that for ciclopirox (HIF1 ODD-luc reporter) or TBHQ (Neh2-luc reporter), taken as 100%. Luciferase reporter activity was measured with a SteadyGlo reagent from Promega providing stable reading for 1 h.
(§2) Cells were plated at the density of 25,000 cell per well using a WellMate multichannel dispenser from Matrix (Thermo Fisher Scientific, Waltham, MA) and grown overnight on DMEM/F12+GlutaMAX (100 µl per well). Then an inhibitor was added, and the plates were incubated for a fixed time interval; the medium was removed, cells lysed, and luciferase activity was measured on a SpectraMax M5e platereader (Molecular Devices, Sunnyvale, CA) with BrightGlo™ reagent (Promega, Madison, WI). The reporter activation was normalized to the background luminescence. The effect of 0.5 mM N-acetylcysteine (NAC) was studied by simultaneous addition of 5 µL of 10 mM stock of NAC in water and 2 µL of 50x stock solutions of a flavonoid in DMSO.

Data set [4] deals with rotenone-induced hemiparkinsonian rats. Further details: method as in PMID 23357119. The following applies: 25-75 mg/kg twice a day for 4 days; cited from earlier work.
Data set [5] can be described thus: Non-enzymatic ferricyanide reduction rate constant. The conditions noted are these: 1 mM ferricyanide, pH 7.0. Type of data set: physicochemical. The protocol: The rate of ferricyanide reduction by individual flavonoids was measured spectrophotometrically at 420 nm with the fixed concentration of ferricyanide (1 mM) and varied concentrations of a flavonoid in Potassium-phosphate buffer, pH 7.0. The rate constant for direct ferricyanide reduction was calculated from the slope of the dependence reaction rate vs flavonoid concentration and used as a measure of flavonoid non-specific reducing power.

On the set-up of data set [6]: method as in PMID 17112238. The conditions noted are these: cited from earlier work.
The test system of data set [7] is HIF1 ODD-luc reporter (SH-SY5Y cell line). As to the kind of experiment: HIF1 ODD-luc reporter assay. Type of data set: cell-based. The following applies: Homo sapiens, SH-SY5Y. On the procedure:
as §1, §2

A further data set deals with HIF PHD2. The conditions noted are these: read-out: HIF PHD2 apparent inhibition constant; cited from earlier work.

As usually defined, the EC50 is the midpoint of the concentration-response curve. The low end stands for a more potent agent, the high end for a less potent agent.

Turning to `O=c1c(O)c(-c2ccc(O)c(O)c2)oc2cc(O)cc(O)c12` [compound 11, Quercetin], the “Iron complex Diss. Const” value in data set [1] was 2.7 ± 0.3 µM. Further, the fold induction at 10 µM in data set [2] is 2 ± 0.2; in data set [3] (Homo sapiens, SH-SY5Y, at 10 µM, 3 h incubation, read-out: Neh2-luc fold activation), 24 ± 3; in data set [7] (3 h, at 10 µM, 3 h incubation, read-out: ODD-luc fold activation) it was 1.5 ± 0.2. Besides, the EC50 was 2000 nM in data set [3] (Homo sapiens, SH-SY5Y, Neh2-luc) and roughly 2500 nM in data set [7]. The “effect of NAC on Neh2-luc reporter activation” value in data set [3] (simultaneous addition of 0.5 mM NAC, results not shown) is on record as “no effect”. Further, in data set [4], the “neuroprotection in rotenone model” value is given as “neuroprotective”. Further, in data set [5], the “FC red Rate Const” value was 366 ± 39 mM⁻¹ s⁻¹. The EHOMO in data set [6] was -8.72 eV. Moreover, on HIF PHD2, the Ki was 10 µM.

(Values after article PMC5201116, “Bioactive Flavonoids and Catechols as Hif1 and Nrf2 Protein Stabilizers - Implications for Parkinson’s Disease” (Aging and Disease, 2016).)
